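Method: 48-hour compound exposure of cells in 96-well plates, five concentrations, linear interpolation of endpoints. At the GI50, growth is halved.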 Activity calls are given as the source filed them. Rule as the data show it: active = GI50 up to about 1.1 µM and inactive = higher.

The values that follow come from ChEMBL document CHEMBL1201862, “PubChem BioAssay data set” (2004).

Among the test systems are ACHN; CAKI-1; CCRF-CEM; HCC 2998; HCT-116; HL-60; HOP-62; HOP-92; K562; LOX IMVI; MOLT-4; SK-MEL-5; SR; SW-620; EKVX; SF-539; SK-MEL-2; SN12C; SK-OV-3.
What all share (experiment): growth of human tumour cells (NCI), 48 h

As to `CN(NC1OC(CO)C(O)C(O)C1O)c1ccccc1` (stereo not given), the GI50 in the test with ACHN is > 100 µM (inactive); in the test with CAKI-1, > 100 µM (inactive); with CCRF-CEM it was > 100 µM (inactive); with HCC 2998 it was 43.4 µM (inactive); in the test on HCT-116, > 100 µM (inactive); in the test with HL-60 it was > 100 µM (inactive). Further, the GI50 in the test with HOP-62, in the test with HOP-92, in the test with K562, in the test on LOX IMVI, in the test on MOLT-4 and in the test on SK-MEL-5 was > 100 µM (inactive) each time. In addition, the GI50 with SR and with SW-620 was > 100 µM (inactive) in each case.
In the case of `CCCn1cc2c(SC)nc(SC)nc2n1`, the GI50 with ACHN, in the test with CAKI-1, with CCRF-CEM, in the test with EKVX, in the test with HCC 2998 and with HCT-116 was > 100 µM (inactive) in each case. Further, the GI50 in the test on HL-60, with HOP-92, in the test with K562, with LOX IMVI, in the test on MOLT-4 and with SF-539 was > 100 µM (inactive) throughout. Moreover, the GI50 in the test on SK-MEL-2, in the test with SK-MEL-5, in the test on SN12C, in the test with SR and in the test on SW-620 was > 100 µM (inactive) throughout.
With `COc1cccc(-c2nccc3c(OCc4ccccc4)c(OC)c(OC)cc23)c1`, the GI50 in the test with ACHN was 54.6 µM (inactive); with CCRF-CEM it was 5.68 µM (inactive); in the test on EKVX, > 100 µM (inactive); in the test with HCC 2998, 58.3 µM (inactive); with HCT-116, 7.57 µM (inactive); with HL-60, 4.25 µM (inactive). Further, the GI50 was > 100 µM (inactive) in the test on HOP-62; > 100 µM (inactive) in the test on HOP-92; 4.91 µM (inactive) in the test on K562; > 100 µM (inactive) in the test with LOX IMVI; 5.53 µM (inactive) in the test with MOLT-4; > 100 µM (inactive) in the test on SF-539. The GI50 in the test on SK-MEL-2 was 30.1 µM (inactive); in the test with SK-MEL-5 it was 8.97 µM (inactive); in the test with SK-OV-3, > 100 µM (inactive); in the test with SN12C, 7.67 µM (inactive); with SR, 6.68 µM (inactive); with SW-620, > 100 µM (inactive).
Consider `COc1cc([C@@H]2c3cc4c(cc3[C@@H](NC(=O)c3cccc(N)c3)C3COC(=O)[C@@H]32)OCO4)cc(OC)c1O` (stereo not given in full), for which the GI50 is 0.166 µM (active) with ACHN; 0.333 µM (active) in the test with CAKI-1; 0.0802 µM (active) in the test with CCRF-CEM; 2.61 µM (inactive) in the test with EKVX; 2.21 µM (inactive) with HCC 2998; 2.28 µM (inactive) with HCT-116. Moreover, the GI50 with HL-60 was 0.233 µM (active); in the test on HOP-62 it was 0.0231 µM (active); in the test with HOP-92, 0.946 µM (active); with K562, 2.11 µM (inactive); in the test on LOX IMVI it was 0.491 µM (active); in the test on MOLT-4 it was < 0.0147 µM (active). Moreover, the GI50 is 0.284 µM (active) in the test on SF-539; 3.3 µM (inactive) in the test with SK-MEL-2; 1.66 µM (inactive) with SK-MEL-5; 1.97 µM (inactive) with SK-OV-3; 0.445 µM (active) in the test with SN12C; < 0.01 µM (active) in the test with SR. The GI50 in the test with SW-620 was 0.391 µM (active).
As for `Oc1cccc2nc3cc(CN4CCOCC4)c(CN4CCOCC4)cc3nc12`, the GI50 in the test on ACHN is 47.8 µM (inactive); with CAKI-1 it was > 100 µM (inactive); in the test with CCRF-CEM, 44.9 µM (inactive); in the test with EKVX, > 100 µM (inactive); in the test on HCC 2998, 50.8 µM (inactive); in the test on HCT-116, 52.2 µM (inactive). The GI50 in the test with HL-60 was 33.3 µM (inactive); with HOP-62, 52 µM (inactive); with HOP-92, 46.7 µM (inactive); with K562, 34.3 µM (inactive); in the test with LOX IMVI, 38.3 µM (inactive); in the test on MOLT-4 it was 31.9 µM (inactive). Moreover, the GI50 is 38.3 µM (inactive) in the test on SF-539; > 100 µM (inactive) in the test on SK-MEL-2; 24.4 µM (inactive) in the test on SK-MEL-5; 50.6 µM (inactive) with SK-OV-3; 79.3 µM (inactive) in the test with SN12C; 40.2 µM (inactive) in the test on SR. Moreover, the GI50 with SW-620 is 57.3 µM (inactive).
With `COc1cc2ccc3c4c(OC)cc(OC)c(OC)c4c([O-])[n+](C)c3c2cc1OC`, the GI50 with ACHN was > 24.8 µM (inactive); in the test with CAKI-1, > 20.6 µM (inactive); in the test with EKVX, 22.2 µM (inactive); with HCC 2998 it was 14.4 µM (inactive); in the test with HCT-116, 11.5 µM (inactive); in the test with HL-60, 1.33 µM (inactive). The GI50 is 15.1 µM (inactive) in the test with HOP-62; 12 µM (inactive) with HOP-92; 0.568 µM (active) with K562; 1.67 µM (inactive) in the test on MOLT-4; > 32.7 µM (inactive) with SF-539; 21.9 µM (inactive) with SK-MEL-2. In addition, the GI50 in the test with SK-MEL-5 is 9.02 µM (inactive); in the test on SK-OV-3, > 33 µM (inactive); with SN12C, 1.74 µM (inactive); in the test with SR, 0.759 µM (active).
`NC(=O)c1csc(CCCCCCc2nc(C(N)=O)cs2)n1`: the GI50 in the test with ACHN is > 100 µM (inactive); with CAKI-1 it was > 100 µM (inactive); in the test with CCRF-CEM, > 43.5 µM (inactive); with EKVX, > 100 µM (inactive); in the test with HCC 2998, > 100 µM (inactive); in the test on HCT-116, > 56.2 µM (inactive). Also, the GI50 in the test on HL-60 was > 100 µM (inactive); in the test on HOP-62, > 100 µM (inactive); in the test with HOP-92, > 100 µM (inactive); in the test on K562 it was > 39.1 µM (inactive); in the test with LOX IMVI it was > 61.7 µM (inactive); in the test with MOLT-4, > 100 µM (inactive). Further, the GI50 with SF-539, in the test with SK-MEL-2, in the test on SK-MEL-5, in the test on SK-OV-3, in the test on SN12C and with SR was > 100 µM (inactive) throughout. In the test on SW-620, the GI50 is > 40.3 µM (inactive).
As to `O=C(c1ccccc1)c1c(CC(O)c2cccnc2)n(C(=O)c2ccccc2)c2ccccc12` (stereo not given), the GI50 in the test with ACHN was 22.9 µM (inactive); with CAKI-1, 26.4 µM (inactive); with CCRF-CEM, 22.5 µM (inactive); in the test on HCC 2998 it was 16.5 µM (inactive); in the test with HCT-116, 15.9 µM (inactive); in the test on HL-60, 21.5 µM (inactive). Further, the GI50 with HOP-62 was 16 µM (inactive); in the test with HOP-92 it was 15 µM (inactive); in the test with K562, 21.6 µM (inactive); with MOLT-4 it was 17.9 µM (inactive); in the test on SF-539, 16.6 µM (inactive); in the test on SK-MEL-2, 20.3 µM (inactive). The GI50 is 16.9 µM (inactive) in the test on SK-MEL-5, 13.5 µM (inactive) with SR and 26.6 µM (inactive) in the test with SW-620.
In the case of `COc1ccc(C2=CC3CCC2C3)cc1` (stereo not given), the GI50 is > 100 µM (inactive) in the test on ACHN; > 100 µM (inactive) in the test on CAKI-1; > 100 µM (inactive) with CCRF-CEM; > 100 µM (inactive) with EKVX; > 100 µM (inactive) in the test on HCT-116; 50 µM (inactive) in the test with HL-60. Moreover, the GI50 in the test on HOP-62 was > 100 µM (inactive); in the test with HOP-92 it was 59.8 µM (inactive); with K562, > 100 µM (inactive); in the test with LOX IMVI it was > 100 µM (inactive); with MOLT-4, > 100 µM (inactive); in the test on SF-539, > 100 µM (inactive). The GI50 in the test with SK-MEL-2 was > 100 µM (inactive); in the test on SK-MEL-5, > 100 µM (inactive); in the test with SK-OV-3, 12.2 µM (inactive); with SN12C, > 100 µM (inactive); with SR, > 100 µM (inactive); in the test on SW-620, > 100 µM (inactive).
Turning to `O=C(O)C1Cc2[nH]c3ccccc3c2C2CCCC12` (stereo not given), the GI50 in the test with ACHN, with CAKI-1, in the test with CCRF-CEM, in the test on EKVX, in the test with HCC 2998 and in the test with HCT-116 was > 100 µM (inactive) in each case. Besides, the GI50 with HOP-92, in the test with K562, in the test with LOX IMVI, with MOLT-4, in the test on SF-539 and in the test on SK-MEL-2 was > 100 µM (inactive) in each case. The GI50 in the test with SK-MEL-5, in the test with SK-OV-3, in the test on SN12C, in the test with SR and with SW-620 was > 100 µM (inactive) in each case.
Take `CC(=O)NNc1nc(C)c(C(=O)NNC(=O)C(=O)Nc2ccc(Cl)cc2)s1`: the GI50 with ACHN was 54.6 µM (inactive); with CCRF-CEM, 25.3 µM (inactive); in the test with EKVX, > 100 µM (inactive); in the test on HCC 2998 it was > 100 µM (inactive); in the test with HCT-116, > 100 µM (inactive); in the test with HL-60, > 100 µM (inactive). The GI50 in the test with HOP-62 is > 100 µM (inactive); with HOP-92 it was 39.5 µM (inactive); in the test with K562, 46.2 µM (inactive); with LOX IMVI, 53 µM (inactive); in the test with MOLT-4, 37.4 µM (inactive); in the test on SF-539 it was > 100 µM (inactive). Also, the GI50 in the test on SK-MEL-2 was > 100 µM (inactive); in the test on SK-MEL-5, > 100 µM (inactive); with SK-OV-3, > 100 µM (inactive); with SN12C, > 100 µM (inactive); with SR it was 68.5 µM (inactive); with SW-620, 54.6 µM (inactive).
